Data from ChEMBL document CHEMBL1641420, “Discovery of pyrazolo[1,5-a]pyrimidine-based CHK1 inhibitors: a template-based approach--part 1” (Bioorg Med Chem Lett, 2011).
pIC50: −log10 of the molar value.

Columns and labels:
[1] = biological target: T1, Serine/threonine-protein kinase Chk1 (Homo sapiens, UniProt O14757); assay: Inhibition of recombinant His-CHK1 expressed in baculovirus after 2 hrs by scintillation proximity assay
T1 sequence (O14757 whole entry): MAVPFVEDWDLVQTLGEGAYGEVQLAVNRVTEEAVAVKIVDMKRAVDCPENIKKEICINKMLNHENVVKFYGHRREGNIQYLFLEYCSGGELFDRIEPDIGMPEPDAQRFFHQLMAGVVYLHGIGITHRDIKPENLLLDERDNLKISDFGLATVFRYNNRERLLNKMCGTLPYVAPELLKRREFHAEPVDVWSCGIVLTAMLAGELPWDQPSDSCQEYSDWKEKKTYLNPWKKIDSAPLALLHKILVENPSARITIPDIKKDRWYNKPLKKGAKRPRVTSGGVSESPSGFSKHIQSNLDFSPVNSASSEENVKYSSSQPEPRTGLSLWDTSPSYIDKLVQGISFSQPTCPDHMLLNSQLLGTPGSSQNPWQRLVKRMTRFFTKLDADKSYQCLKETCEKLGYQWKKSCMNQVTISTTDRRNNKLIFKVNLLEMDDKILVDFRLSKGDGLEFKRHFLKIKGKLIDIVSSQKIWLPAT

[2] = biological target: Cyclin-dependent kinase 2/cyclin A (Homo sapiens, UniProt P24941); assay: Inhibition of CDK2/cyclin A; type: protein-complex assay
[3] = Selectivity ratio, ratio of IC50 for CDK2/cyclin A to IC50 for recombinant His-CHK1

## Nc1cc(C2CCCNC2)nc2c(-c3cnccn3)cnn12 (configuration not stated)
[1]
  pIC50: 6.54
[2]
  pIC50: 5.92

## CNc1cc(C2CCCNC2)nc2c(-c3cnn(C)c3)cnn12 (configuration not stated)
[1]
  pIC50: 6.85
[2]
  pIC50: < 4.30

## Nc1cc(C2CCCNC2)nc2c(-c3ccns3)cnn12 (configuration not stated)
[1]
  pIC50: 7.15
[2]
  pIC50: 6.10

## C/C=C/c1cnn2c(N)cc(C3CCCNC3)nc12 (configuration not stated)
[1]
  pIC50: 5.29
[2]
  pIC50: 6.15

## Nc1cc(C2CCCNC2)nc2c(-c3ccsc3)cnn12 (configuration not stated)
[1]
  pIC50: 5.96
[2]
  pIC50: 6.23

## Cn1cc(-c2cnn3c(NC4CCCCC4)cc(C4CCCNC4)nc23)cn1 (configuration not stated)
[1]
  pIC50: 5.82
[2]
  pIC50: < 4.30

## Cn1cc(-c2cnn3c(Nc4ccccc4)cc(C4CCCNC4)nc23)cn1 (configuration not stated)
[1]
  pIC50: 7.06
[2]
  pIC50: < 4.30

## Cn1cc(-c2cnn3c(NCc4ccccc4)cc(C4CCCNC4)nc23)cn1 (configuration not stated)
[1]
  pIC50: 6.00

## CCn1nccc1Nc1cc(C2CCCNC2)nc2c(-c3cnn(C)c3)cnn12 (configuration not stated)
[1]
  pIC50: 4.47

## Cn1cc(-c2cnn3c(NC4CCNCC4)cc(C4CCCNC4)nc23)cn1 (configuration not stated)
[1]
  pIC50: 5.17
[2]
  pIC50: < 4.30

## Nc1cc(C2CCCNC2)nc2c(-c3cccnc3)cnn12 (configuration not stated)
[1]
  pIC50: 6.27

## Nc1cc(C2CCCNC2)nc2c(-c3cccc(O)c3)cnn12 (configuration not stated)
[1]
  pIC50: 5.77
[2]
  pIC50: 6.19

## CCOC(=O)c1ccc(Nc2cc(C3CCCNC3)nc3c(-c4cnn(C)c4)cnn23)cc1 (configuration not stated)
[1]
  pIC50: 7.29
[2]
  pIC50: < 4.30

## Cn1cc(-c2cnn3c(NCCO)cc(C4CCCNC4)nc23)cn1 (configuration not stated)
[1]
  pIC50: 6.07
[2]
  pIC50: < 4.30

## CCc1cnn2c(N)cc(C3CCCNC3)nc12 (configuration not stated)
[1]
  pIC50: 5.03
[2]
  pIC50: 6.57

## [O-][n+]1cccc(CNc2cc(-c3ccccc3F)nc3c(Br)cnn23)c1
[1]
  pIC50: < 4.30
[2]
  pIC50: 7.89

## Cn1cc(-c2cnn3c(Nc4ccccn4)cc(C4CCCNC4)nc23)cn1 (configuration not stated)
[1]
  pIC50: 7.55
[2]
  pIC50: < 4.30

## CC#Cc1cnn2c(N)cc(C3CCCNC3)nc12 (configuration not stated)
[1]
  pIC50: 4.74
[2]
  pIC50: 7.10

## Nc1cc(C2CCCNC2)nc2c(-c3ccn[nH]3)cnn12 (configuration not stated)
[1]
  pIC50: 5.70
[2]
  pIC50: 5.66

## CCNc1cc(C2CCCNC2)nc2c(-c3cnn(C)c3)cnn12 (configuration not stated)
[1]
  pIC50: 6.32
[2]
  pIC50: < 4.30

## Cc1cc(Nc2cc(C3CCCNC3)nc3c(-c4cnn(C)c4)cnn23)no1 (configuration not stated)
[1]
  pIC50: 7.68
[2]
  pIC50: < 4.30

## CCOC(=O)c1cnn2c(N)cc(C3CCCNC3)nc12 (configuration not stated)
[1]
  pIC50: < 4.30

## Cc1nc2cc(Nc3cc(C4CCCNC4)nc4c(-c5cnn(C)c5)cnn34)ccc2s1 (configuration not stated)
[1]
  pIC50: 6.21
[2]
  pIC50: < 4.30

## Cn1cc(-c2cnn3c(N)cc(C4CCCNC4)nc23)cn1 (configuration not stated)
[1]
  pIC50: 7.22
[2]
  pIC50: 5.21
[3]
  Ratio IC50: 100

## Nc1cc(C2CCCNC2)nc2c(-c3cccs3)cnn12 (configuration not stated)
[1]
  pIC50: 5.89
[2]
  pIC50: 6.16

## Nc1cc(C2CCCNC2)nc2c(-c3cncnc3)cnn12 (configuration not stated)
[1]
  pIC50: 6.55
[2]
  pIC50: 5.27

## Nc1cc(C2CCCNC2)nc2ccnn12 (configuration not stated)
[1]
  pIC50: 4.44
[2]
  pIC50: 5.11

## N#Cc1cnn2c(N)cc(C3CCCNC3)nc12 (configuration not stated)
[1]
  pIC50: 5.68
[2]
  pIC50: 6.09

## Cn1cc(-c2cnn3c(Nc4nccs4)cc(C4CCCNC4)nc23)cn1 (configuration not stated)
[1]
  pIC50: 7.55
[2]
  pIC50: < 4.30

## Cn1cc(-c2cnn3c(Nc4nncs4)cc(C4CCCNC4)nc23)cn1 (configuration not stated)
[1]
  pIC50: 5.66
[2]
  pIC50: < 4.30

## Nc1cc(C2CCCNC2)nc2c(-c3ccccc3)cnn12 (configuration not stated)
[1]
  pIC50: 5.35
[2]
  pIC50: 5.34

## Cn1cc(-c2cnn3c(Nc4ccc5c(c4)OCO5)cc(C4CCCNC4)nc23)cn1 (configuration not stated)
[1]
  pIC50: 6.41
[2]
  pIC50: < 4.30

## Nc1cc(C2CCCNC2)nc2c(-c3cscn3)cnn12 (configuration not stated)
[1]
  pIC50: < 4.30

## Nc1cc(C2CCCNC2)nc2c(Br)cnn12 (configuration not stated)
[1]
  pIC50: 5.97
[2]
  pIC50: 7.07

## Nc1cc(-c2ccccc2)nc2c(Br)cnn12
[1]
  pIC50: 5.54
[2]
  pIC50: 6.60

## Cn1cc(-c2cnn3c(NCc4cccnc4)cc(C4CCCNC4)nc23)cn1 (configuration not stated)
[1]
  pIC50: 6.39
[2]
  pIC50: < 4.30

## Cc1cc(Nc2cc(C3CCCNC3)nc3c(-c4cnn(C)c4)cnn23)sn1 (configuration not stated)
[2]
  pIC50: 4.40

## Nc1cc(C2CCCNC2)nc2c(-c3ccoc3)cnn12 (configuration not stated)
[1]
  pIC50: 6.09

## Cn1cc(-c2cnn3c(NC(C)(C)C)cc(C4CCCNC4)nc23)cn1 (configuration not stated)
[1]
  pIC50: 5.30
[2]
  pIC50: < 4.30
